Earlier results as cited in patent EP0501250A1, “Fucose-marked batracylin derivatives” (BAYER AG, priority 1991, dated 1992).

Columns and labels:
[1] = prior-art statement
Colon-38-Modell = Colon-38-Modell an der Maus

Nc1ccc2c(c1)CN1C(=O)c3ccccc3C1=N2 [Batracylin]
Löslichkeit in wasserhaltigen Lösungsmitteln [1]: geringe Löslichkeit | Antitumorwirkung (Colon-38-Modell): ausgezeichnete Antitumorwirkung
